Data on 11 compounds can be found in ChEMBL document CHEMBL1201862, “PubChem BioAssay data set” (2004).

Counter-ions that a name gives are not always drawn.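 Growth conditions: 96-well plates. Treatment: test compound, 48 hours, 5 concentrations. Analysis: linear interpolation between bracketing concentrations; unreached endpoints set to highest concentration. GI50 = concentration required for 50% inhibition of growth.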 Activity calls are given as the source filed them. Cut-off read from the data, not from the text of the source: active = GI50 up to about 1.1 µM and inactive = higher. Non-standard residues stand in square brackets, D forms with d. Residues, ends and D or L forms follow the SMILES beside them. *: point of attachment. Bn2Val = CC(C)[C@@H](C(=O)*)N(Cc1ccccc1)Cc1ccccc1; NH(4-Cl-benzyl) = Clc1ccc(CN*)cc1; NMeV = CN[C@H](C(=O)O)C(C)C; dNMeA = CN[C@H](C)C(=O)O

Among the test systems are 786-0; A549; CAKI-1; HCC 2998; HCT-116; Hs-578T; M14; MDA-MB-435; Malme-3M; NCI-H23; NCI-H522; PC-3; RPMI-8226; SF-295; SK-MEL-28; SNB-19; SNB-75; UACC-62; HL-60; MCF7.
Common to all, as to test: NCI anticancer screen, dose series, 48 h

As for `Cc1cc(Cl)cc2c1NC(=O)C2(O)CC(=O)c1ccco1` (stereo not drawn), the GI50 in the assay on 786-0 is 54.7 µM (inactive); in the assay with A549, > 70.6 µM (inactive); in the assay on CAKI-1 it was > 100 µM (inactive); in the assay with HCC 2998 it was > 100 µM (inactive); in the assay on HCT-116 it was > 77.3 µM (inactive); in the assay with Hs-578T it was 88.9 µM (inactive). For the same compound, the GI50 is > 66.2 µM (inactive) in the assay on M14; 2.92 µM (inactive) in the assay with MDA-MB-435; > 48.5 µM (inactive) in the assay with Malme-3M; > 53.7 µM (inactive) in the assay on NCI-H23; > 100 µM (inactive) in the assay with NCI-H522; > 100 µM (inactive) in the assay on PC-3. The GI50 in the assay with RPMI-8226 was 47 µM (inactive); with SF-295, > 73.3 µM (inactive); with SK-MEL-28, > 70 µM (inactive); in the assay with SNB-19, > 100 µM (inactive); in the assay with SNB-75, 55.1 µM (inactive); in the assay on UACC-62, 31 µM (inactive).
In the case of `COc1ccc2cc(Oc3ccc(Cl)cc3)c(=O)oc2c1`, the GI50 is > 100 µM (inactive) in the assay with 786-0; > 100 µM (inactive) in the assay with A549; > 100 µM (inactive) in the assay with CAKI-1; > 10 µM (inactive) in the assay with HCC 2998; > 100 µM (inactive) in the assay with HCT-116; > 100 µM (inactive) with HL-60. For the same compound, the GI50 in the assay on Hs-578T, in the assay on M14, in the assay on MCF7, with Malme-3M, in the assay with NCI-H23 and with NCI-H522 was > 100 µM (inactive) in each case. Further, the GI50 in the assay on PC-3 was > 100 µM (inactive); in the assay on RPMI-8226, > 100 µM (inactive); in the assay with SF-295, 60.5 µM (inactive); with SK-MEL-28 it was > 100 µM (inactive); with SNB-19, > 100 µM (inactive); with SNB-75 it was > 100 µM (inactive).
Turning to `O=C(CCO)OCCCCCC/C=C\CCCCCC/C=C\CCCCCCCCOC(=O)CCO`, the GI50 was 18.5 µM (inactive) in the assay with 786-0; 15.9 µM (inactive) with A549; 21.7 µM (inactive) with CAKI-1; 16.5 µM (inactive) in the assay on HCC 2998; 16.3 µM (inactive) in the assay on HCT-116; 12.2 µM (inactive) with HL-60. For the same compound, the GI50 was 17.1 µM (inactive) with M14; 15.7 µM (inactive) with MCF7; 21.2 µM (inactive) with MDA-MB-435; 20.5 µM (inactive) in the assay with Malme-3M; 17.9 µM (inactive) with NCI-H23; 16.5 µM (inactive) with NCI-H522. The GI50 with PC-3 is 17.1 µM (inactive); in the assay on SF-295, 18.3 µM (inactive); in the assay on SK-MEL-28 it was 19.5 µM (inactive); in the assay with SNB-19, 18.9 µM (inactive); in the assay on SNB-75, 19.8 µM (inactive); with UACC-62 it was 16.3 µM (inactive).
Regarding `CCOC(=O)C12OC(OCC)(CC1(OCC)OCC)C1(CC1)C2=O` (stereo not drawn), the GI50 with 786-0, in the assay on A549, in the assay on CAKI-1, in the assay with HCC 2998, in the assay with HCT-116 and in the assay with M14 was > 100 µM (inactive) throughout. Also, the GI50 in the assay on MCF7, in the assay on MDA-MB-435, in the assay with Malme-3M, in the assay with NCI-H23, with PC-3 and in the assay with SF-295 was > 100 µM (inactive) throughout. The GI50 in the assay on SK-MEL-28, in the assay on SNB-19 and with SNB-75 was > 100 µM (inactive) in each case.
Take `Cc1nn(C(=O)c2ccccc2O)c2c1C(c1ccco1)SC(=N)N2` (stereo not drawn): the GI50 in the assay on 786-0 is 7.01 µM (inactive); with A549 it was 4.43 µM (inactive); in the assay with CAKI-1 it was 3.48 µM (inactive); in the assay on HCT-116 it was 3.34 µM (inactive); in the assay on HL-60, 4.94 µM (inactive); in the assay on Hs-578T it was 6.92 µM (inactive). The GI50 with M14 was 3.5 µM (inactive); with MDA-MB-435, 7.29 µM (inactive); in the assay with Malme-3M it was > 10 µM (inactive); in the assay with NCI-H23, > 10 µM (inactive); in the assay on PC-3, 3.73 µM (inactive); in the assay on RPMI-8226, 4.43 µM (inactive). Also, the GI50 with SF-295 was > 10 µM (inactive); in the assay on SK-MEL-28, 6.41 µM (inactive); with SNB-19, > 10 µM (inactive); in the assay with SNB-75, 1.45 µM (inactive); with UACC-62 it was 2.13 µM (inactive).
As for `COc1cccc2c1OCC1Cc3ccccc3OC21` (stereo not drawn), the GI50 in the assay on 786-0 was 35.6 µM (inactive); with A549 it was 35.1 µM (inactive); with CAKI-1, 61.4 µM (inactive); in the assay on HCC 2998, 51.6 µM (inactive); with HCT-116, 33.6 µM (inactive); in the assay on M14, 44 µM (inactive). For the same compound, the GI50 with MCF7 is 38.1 µM (inactive); with MDA-MB-435 it was 24.7 µM (inactive); with Malme-3M, 42.4 µM (inactive); in the assay on NCI-H23 it was 42.4 µM (inactive); in the assay with NCI-H522, > 100 µM (inactive); with PC-3, 34.9 µM (inactive). Also, the GI50 was 47.6 µM (inactive) in the assay on RPMI-8226, 36.6 µM (inactive) with SF-295 and 45.4 µM (inactive) with UACC-62.
For the compound `CCOC(=O)Oc1cc2c(ccn2C)c2c1c1ccccc1n2C(=O)OCC`, the GI50 in the assay on 786-0, in the assay with A549, with CAKI-1, in the assay with HCT-116, in the assay on Hs-578T and in the assay on M14 was > 100 µM (inactive) throughout. The GI50 is > 100 µM (inactive) with MCF7; > 100 µM (inactive) in the assay with MDA-MB-435; 76.7 µM (inactive) with Malme-3M; > 100 µM (inactive) with NCI-H23; > 100 µM (inactive) with NCI-H522; > 100 µM (inactive) with PC-3. The GI50 in the assay with RPMI-8226, with SF-295, in the assay on SK-MEL-28, with SNB-75 and in the assay with UACC-62 was > 100 µM (inactive) throughout.
On to `CCOC(=O)[C@@]12C[C@](/C=C/OC)(O[Si](C)(C)C)[C@@]13c1cc(OC)c(OC)cc1CCN3C(=O)C2O` (stereo partly drawn), for which the GI50 was > 100 µM (inactive) with 786-0; > 100 µM (inactive) in the assay with A549; > 100 µM (inactive) in the assay on CAKI-1; > 100 µM (inactive) in the assay with HCT-116; 5.98 µM (inactive) with Hs-578T; > 100 µM (inactive) in the assay on M14. The GI50 with MCF7, in the assay with MDA-MB-435, in the assay with Malme-3M, in the assay with NCI-H23, with PC-3 and in the assay on RPMI-8226 was > 100 µM (inactive) in each case. Also, the GI50 was > 100 µM (inactive) in the assay on SF-295; > 100 µM (inactive) in the assay with SK-MEL-28; > 100 µM (inactive) in the assay with SNB-19; 47.6 µM (inactive) with SNB-75; 46.9 µM (inactive) in the assay with UACC-62.
Take `O=C(NC1CCN(Cc2ccccc2)CC1)c1ccccc1I`: the GI50 in the assay on 786-0 was 26.1 µM (inactive); in the assay with A549 it was 31.6 µM (inactive); in the assay on CAKI-1, 53.5 µM (inactive); in the assay on HCT-116, 16.7 µM (inactive); with HL-60 it was 38.9 µM (inactive); in the assay with Hs-578T it was 17.9 µM (inactive). Also, the GI50 with M14 is 18.7 µM (inactive); with MDA-MB-435, 17.4 µM (inactive); with Malme-3M it was 17.5 µM (inactive); with NCI-H23, 26.2 µM (inactive); in the assay on NCI-H522 it was 14.4 µM (inactive); in the assay on PC-3, 23.6 µM (inactive). In addition, the GI50 in the assay on RPMI-8226 was 36.3 µM (inactive); in the assay with SF-295, 20.2 µM (inactive); with SK-MEL-28, 17.8 µM (inactive); with SNB-19, 51.4 µM (inactive); in the assay with UACC-62, 18.5 µM (inactive).
For the compound `CC(C)[C@H](NC(=O)[C@H](C(C)C)N(Cc1ccccc1)Cc1ccccc1)C(=O)N(C)[C@H](C(=O)N1CCC[C@H]1C(=O)N(C)[C@H](C)C(=O)NCc1ccc(Cl)cc1)C(C)C` (Bn2Val-V[NMeV]P[dNMeA]-{NH(4-Cl-benzyl)}), the GI50 is 3.26 µM (inactive) in the assay with 786-0; 4.04 µM (inactive) in the assay with A549; 5.94 µM (inactive) with CAKI-1; 3.02 µM (inactive) in the assay on HCT-116; 1.77 µM (inactive) with HL-60; 1.05 µM (active) in the assay on Hs-578T. Moreover, the GI50 is 4.01 µM (inactive) with M14; 4.03 µM (inactive) in the assay with MDA-MB-435; 10.3 µM (inactive) with Malme-3M; 3.37 µM (inactive) with NCI-H23; 2.06 µM (inactive) in the assay with NCI-H522; 2.75 µM (inactive) in the assay on PC-3. Moreover, the GI50 is 2.69 µM (inactive) in the assay with RPMI-8226; 3.11 µM (inactive) with SF-295; 4.98 µM (inactive) in the assay on SK-MEL-28; 4.24 µM (inactive) in the assay on SNB-19; 3.44 µM (inactive) in the assay on SNB-75; 3.32 µM (inactive) in the assay with UACC-62.
In the case of `c1ccc([C@H]2CN3CCSC3=N2)cc1` [LEVAMISOLE HYDROCHLORIDE], the GI50 with 786-0, in the assay with A549, in the assay on CAKI-1, with HCC 2998, with HCT-116 and with HL-60 was > 100 µM (inactive) each time. In addition, the GI50 with M14, with MCF7, in the assay with MDA-MB-435, in the assay with Malme-3M, in the assay with NCI-H23 and with NCI-H522 was > 100 µM (inactive) in each case. In addition, the GI50 in the assay with PC-3, in the assay with SF-295, with SK-MEL-28, with SNB-19, with SNB-75 and in the assay with UACC-62 was > 100 µM (inactive) throughout.
